# Test system: wheat seeds
# Assay: Effect of preservative on promotion of wheat seedling root growth by black tea extract (Example 10)
# Format: in vivo
# Settings: 1% solution of methyl paraben predissolved in hexalene glycol
# Method: To evaluate whether a preservative affects the benefits of black tea extracts on wheat germination and early root growth, Malawi black tea extracts and Kenya black tea extracts were prepared according to Example 1 and used to treat wheat seeds (0.6 ml/kg seed) in combination with a preservative (1% solution of methyl paraben that has been predissolved in hexalene glycol (30:1 ratio of hexalene glycol to methyl paraben)) or without the preservative substantially according to Example 2. Root system measurements were performed according to Example 6.
structure (smiles),measurement,value
COC(=O)c1ccc(O)cc1 [methyl paraben],effect of preservative on the benefits of the black tea extracts,did not negatively affect
